target: Human recombinant PDE4 (Genbank accession no NM—006203) (Homo sapiens, UniProt Q08499); test: PDE4 assay (SPA, cAMP cleavage); type: biochemical; details: Example 53; PDE4 assay as in example 52; read-out: PDE4 IC50 range
Description: At the end of the incubation, the cleavage of the substrate was evaluated by the binding of the AMP product to SPA beads, which generate chemoluminescence when bound to the radioactive tracer. The AMP product inhibited the binding of the radioactive tracer to the beads, and the luminescent signal was competed.

Sequence of Human recombinant PDE4 (Genbank accession no NM—006203) (Q08499 1-673 isoform Q08499-2): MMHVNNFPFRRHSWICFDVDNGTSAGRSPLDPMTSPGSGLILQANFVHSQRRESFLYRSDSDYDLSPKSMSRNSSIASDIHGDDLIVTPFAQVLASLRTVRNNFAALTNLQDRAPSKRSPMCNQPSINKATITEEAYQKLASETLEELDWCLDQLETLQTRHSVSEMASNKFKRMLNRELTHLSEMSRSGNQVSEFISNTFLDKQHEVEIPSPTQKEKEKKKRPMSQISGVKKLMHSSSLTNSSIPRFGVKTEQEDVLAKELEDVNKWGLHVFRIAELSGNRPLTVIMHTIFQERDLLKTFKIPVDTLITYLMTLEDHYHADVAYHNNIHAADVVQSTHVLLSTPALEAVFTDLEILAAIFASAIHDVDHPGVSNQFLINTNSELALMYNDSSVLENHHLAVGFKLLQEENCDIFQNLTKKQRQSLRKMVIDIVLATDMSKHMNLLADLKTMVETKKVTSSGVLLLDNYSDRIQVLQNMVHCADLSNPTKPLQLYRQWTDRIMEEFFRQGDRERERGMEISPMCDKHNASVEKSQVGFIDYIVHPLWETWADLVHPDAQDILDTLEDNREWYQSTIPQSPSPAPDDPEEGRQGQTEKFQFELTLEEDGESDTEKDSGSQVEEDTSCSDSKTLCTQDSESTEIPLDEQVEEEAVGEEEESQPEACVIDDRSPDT

Row | IC50 | Compound
1 | < 500 nM | COc1ccc(-c2cccc(C#N)c2)n2nc(C3(C(=O)NCCS(C)(=O)=O)CC3)nc12 [Compound 199, 1-[5-(3-Cyano-phenyl)-8-methoxy-[1,2,4]triazolo[1,5-a]pyridin-2-yl]-cyclopropanecarboxylic acid (2-methanesulfonyl-ethyl)-amide]
2 | 500 to 1000 nM | COc1ccc(-c2cccc(C#N)c2)n2nc(C3(C(=O)N4CCCC4)CC3)nc12 [Compound 200, 3-{8-Methoxy-2-[1-(pyrrolidine-1-carbonyl)-cyclopropyl]-[1,2,4]triazolo[1,5-a]pyridin-5-yl}-benzonitrile]
3 | < 500 nM | C=C(C)C(=O)OCCNC(=O)C1(c2nc3c(OC)ccc(-c4cccc(C#N)c4)n3n2)CC1 [Compound 201, 2-Methyl-acrylic acid 2-({1-[5-(3-cyano-phenyl)-8-methoxy-[1,2,4]triazolo[1,5-a]pyridin-2-yl]-cyclopropanecarbonyl}-amino)-ethyl ester]
4 | < 500 nM | COCCNC(=O)C1(c2nc3c(OC)ccc(-c4cccc(C#N)c4)n3n2)CC1 [Compound 202, 1-[5-(3-Cyano-phenyl)-8-methoxy-[1,2,4]triazolo[1,5-a]pyridin-2-yl]-cyclopropanecarboxylic acid (2-methoxy-ethyl)-amide]
5 | < 500 nM | COc1ccc(-c2ccc(C#N)cc2)n2nc(C3(C(=O)NCc4cccnc4)CC3)nc12 [Compound 203, 1-[5-(4-Cyano-phenyl)-8-methoxy-[1,2,4]triazolo[1,5-a]pyridin-2-yl]-cyclopropanecarboxylic acid (pyridin-3-ylmethyl)-amide]
6 | > 1000 nM | COc1ccc(-c2ccc(C#N)cc2)n2nc(C3(C(=O)N4CCN(C)CC4)CC3)nc12 [Compound 204, 4-{8-Methoxy-2-[1-(4-methyl-piperazine-1-carbonyl)-cyclopropyl]-[1,2,4]triazolo[1,5-a]pyridin-5-yl}-benzonitrile]
7 | > 1000 nM | COc1ccc(-c2ccc(C#N)cc2)n2nc(C3(C(=O)N4CCOCC4)CC3)nc12 [Compound 205, 4-{8-Methoxy-2-[1-(morpholine-4-carbonyl)-cyclopropyl]-[1,2,4]triazolo[1,5-a]pyridin-5-yl}-benzonitrile]
8 | < 500 nM | COc1ccc(-c2ccc(C#N)cc2)n2nc(C3(C(=O)NCc4ccccc4)CC3)nc12 [Compound 206, 1-[5-(4-Cyano-phenyl)-8-methoxy-[1,2,4]triazolo[1,5-a]pyridin-2-yl]-cyclopropanecarboxylic acid benzylamide]
9 | < 500 nM | COc1ccc(-c2ccc(C#N)cc2)n2nc(C3(C(=O)NCCS(N)(=O)=O)CC3)nc12 [Compound 207, 1-[5-(4-Cyano-phenyl)-8-methoxy-[1,2,4]triazolo[1,5-a]pyridin-2-yl]-cyclopropanecarboxylic acid (2-sulfamoyl-ethyl)-amide]
10 | < 500 nM | COc1ccc(-c2ccc(C#N)cc2)n2nc(C3(C(=O)NCCS(C)(=O)=O)CC3)nc12 [Compound 208, 1-[5-(4-Cyano-phenyl)-8-methoxy-[1,2,4]triazolo[1,5-a]pyridin-2-yl]-cyclopropanecarboxylic acid (2-methanesulfonyl-ethyl)-amide]
11 | < 500 nM | COc1ccc(-c2ccc(C#N)cc2)n2nc(C3(C(=O)NC(C)C)CC3)nc12 [Compound 209, 1-[5-(4-Cyano-phenyl)-8-methoxy-[1,2,4]triazolo[1,5-a]pyridin-2-yl]-cyclopropanecarboxylic acid isopropylamide]
12 | < 500 nM | CNC(=O)C1(c2nc3c(OC)ccc(-c4ccc(C#N)cc4)n3n2)CC1 [Compound 210, 1-[5-(4-Cyano-phenyl)-8-methoxy-[1,2,4]triazolo[1,5-a]pyridin-2-yl]-cyclopropanecarboxylic acid methylamide]
13 | < 500 nM | CCNC(=O)C1(c2nc3c(OC)ccc(-c4ccc(C#N)cc4)n3n2)CC1 [Compound 211, 1-[5-(4-Cyano-phenyl)-8-methoxy-[1,2,4]triazolo[1,5-a]pyridin-2-yl]-cyclopropanecarboxylic acid ethylamide]
14 | < 500 nM | CCCNC(=O)C1(c2nc3c(OC)ccc(-c4ccc(C#N)cc4)n3n2)CC1 [Compound 212, 1-[5-(4-Cyano-phenyl)-8-methoxy-[1,2,4]triazolo[1,5-a]pyridin-2-yl]-cyclopropanecarboxylic acid propylamide]
15 | < 500 nM | COc1ccc(-c2ccc(C#N)cc2)n2nc(C3(C(=O)NC4CC4)CC3)nc12 [Compound 213, 1-[5-(4-Cyano-phenyl)-8-methoxy-[1,2,4]triazolo[1,5-a]pyridin-2-yl]-cyclopropanecarboxylic acid cyclopropylamide]
16 | < 500 nM | COc1ccc(-c2ccc(C#N)cc2)n2nc(C3(C(=O)NCC(C)C)CC3)nc12 [Compound 214, 1-[5-(4-Cyano-phenyl)-8-methoxy-[1,2,4]triazolo[1,5-a]pyridin-2-yl]-cyclopropanecarboxylic acid isobutyl-amide]

Row | IC50 | Compound
17 | < 500 nM | COc1ccc(-c2ccc(C#N)cc2)n2nc(C3(C(=O)NCC#N)CC3)nc12 [Compound 215, 1-[5-(4-Cyano-phenyl)-8-methoxy-[1,2,4]triazolo[1,5-a]pyridin-2-yl]-cyclopropanecarboxylic acid cyanomethyl-amide]
18 | < 500 nM | COc1ccc(-c2ccc(C#N)cc2)n2nc(C3(C(=O)NCCNC(C)=O)CC3)nc12 [Compound 216, 1-[5-(4-Cyano-phenyl)-8-methoxy-[1,2,4]triazolo[1,5-a]pyridin-2-yl]-cyclopropanecarboxylic acid (2-acetylamino-ethyl)-amide]
19 | < 500 nM | COc1ccc(-c2ccc(C#N)cc2)n2nc(C3(C(=O)NCCNS(C)(=O)=O)CC3)nc12 [Compound 217, 1-[5-(4-Cyano-phenyl)-8-methoxy-[1,2,4]triazolo[1,5-a]pyridin-2-yl]-cyclopropanecarboxylic acid (2-methanesulfonylamino-ethyl)-amide]
20 | < 500 nM | COc1ccc(-c2ccc(C#N)cc2)n2nc(C3(C(=O)NCCC(=O)N4CCOCC4)CC3)nc12 [Compound 218, 1-[5-(4-Cyano-phenyl)-8-methoxy-[1,2,4]triazolo[1,5-a]pyridin-2-yl]-cyclopropanecarboxylic acid (3-morpholin-4-yl-3-oxo-propyl)-amide]
21 | < 500 nM | COc1ccc(-c2ccc(C#N)cc2)n2nc(C3(C(=O)NCCS(=O)(=O)N(C)C)CC3)nc12 [Compound 219, 1-[5-(4-Cyano-phenyl)-8-methoxy-[1,2,4]triazolo[1,5-a]pyridin-2-yl]-cyclopropanecarboxylic acid (2-dimethylsulfamoyl-ethyl)-amide]
22 | < 500 nM | COc1ccc(-c2ccc(C#N)cc2)n2nc(C3(C(=O)NCCN(C)S(C)(=O)=O)CC3)nc12 [Compound 220, 1-[5-(4-Cyano-phenyl)-8-methoxy-[1,2,4]triazolo[1,5-a]pyridin-2-yl]-cyclopropanecarboxylic acid [2-(methanesulfonyl-methyl-amino)-ethyl]-amide]
23 | < 500 nM | COc1ccc(-c2cccc(C(C)=O)c2)n2nc(C3(C(=O)NCc4cccnc4)CC3)nc12 [Compound 221, 1-[5-(3-Acetyl-phenyl)-8-methoxy-[1,2,4]triazolo[1,5-a]pyridin-2-yl]-cyclopropanecarboxylic acid (pyridin-3-ylmethyl)-amide]
24 | 500 to 1000 nM | COc1ccc(-c2cccc(C(C)=O)c2)n2nc(C3(C(=O)N4CCN(C)CC4)CC3)nc12 [Compound 222, 1-(3-{8-Methoxy-2-[1-(4-methyl-piperazine-1-carbonyl)-cyclopropyl]-[1,2,4]triazolo[1,5-a]pyridin-5-yl}-phenyl)-ethanone]
25 | < 500 nM | COc1ccc(-c2cccc(C(C)=O)c2)n2nc(C3(C(=O)N4CCOCC4)CC3)nc12 [Compound 223, 1-(3-{8-Methoxy-2-[1-(morpholine-4-carbonyl)-cyclopropyl]-[1,2,4]-triazolo[1,5-a]pyridin-5-yl}-phenyl)-ethanone]
26 | < 500 nM | COc1ccc(-c2cccc(C(C)=O)c2)n2nc(C3(C(=O)NCc4ccccc4)CC3)nc12 [Compound 224, 1-[5-(3-Acetyl-phenyl)-8-methoxy-[1,2,4]triazolo[1,5-a]pyridin-2-yl]-cyclopropanecarboxylic acid benzylamide]
27 | < 500 nM | COc1ccc(-c2cccc(C(C)=O)c2)n2nc(C3(C(=O)NCCS(N)(=O)=O)CC3)nc12 [Compound 225, 1-[5-(3-Acetyl-phenyl)-8-methoxy-[1,2,4]triazolo[1,5-a]pyridin-2-yl]-cyclopropanecarboxylic acid (2-sulfamoyl-ethyl)-amide]
28 | < 500 nM | COc1ccc(-c2cccc(C(C)=O)c2)n2nc(C3(C(=O)NCCS(C)(=O)=O)CC3)nc12 [Compound 226, 1-[5-(3-Acetyl-phenyl)-8-methoxy-[1,2,4]triazolo[1,5-a]pyridin-2-yl]-cyclopropanecarboxylic acid (2-methanesulfonyl-ethyl)-amide]
29 | < 500 nM | COc1ccc(-c2cccc(C#N)c2)n2nc(C3(C(=O)NCCO)CC3)nc12 [Compound 228, 1-[5-(3-Cyano-phenyl)-8-methoxy-[1,2,4]triazolo[1,5-a]pyridin-2-yl]-cyclopropanecarboxylic acid (2-hydroxy-ethyl)-amide]
30 | < 500 nM | CCCNC(=O)OCC1(c2nc3c(OC)ccc(-c4ccc5c(c4)CCC5=O)n3n2)CC1 [Compound 230, Propyl-carbamic acid 1-[8-methoxy-5-(1-oxo-indan-5-yl)-[1,2,4]triazolo[1,5-a]pyridin-2-yl]-cyclopropylmethyl ester]
31 | < 500 nM | COc1cc(-c2ccc(OC)c3nc(C4(COC(=O)N(C)C)CC4)nn23)ccc1C#N [Compound 231, Dimethyl-carbamic acid 1-[5-(4-cyano-3-methoxy-phenyl)-8-methoxy-[1,2,4]triazolo[1,5-a]pyridin-2-yl]-cyclopropylmethyl ester]
32 | < 500 nM | COc1ccc(-c2cncc(C#N)c2)n2nc(C3(COC(=O)NC(C)C)CC3)nc12 [Compound 232, Isopropyl-carbamic acid 1-[5-(5-cyano-pyridin-3-yl)-8-methoxy-[1,2,4]triazolo[1,5-a]pyridin-2-yl]-cyclopropylmethyl ester]
